According to patent publication US20020049157A1, “Use of proteasome inhibitors for treating cancer, inflammation, autoimmune disease, graft rejection and septic shock” (priority 1998, published 2002):

Experiments:
[1] = Activity of LAC in culture supernatants / medium over time; format: physicochemical; conditions: for inhibitory activity of LAC-conditioned media on proteasome activity of fresh Jurkat cells: LAC 6 μM
Method: C. The activity of LAC in culture supernatants is short-lived LAC (6 μM) was added to Jurkat cell culture (0.5×10^6 cells/ml). The supernatants were harvested at 4 h, 6 h, 16 h and 24 h. These conditioned media were used to culture fresh Jurkat cells for 3 h. The cells were then harvested and assayed for the proteasome activity as described in FIG. 4B. Samples were in duplicates.
We also investigated whether LAC was stable in the culture supernatant. LAC (6 μM) was added to Jurkat cells culture for 4 h, 6 h, 16 h or 24 h. The conditioned medium was harvested and used to treat fresh Jurkat cells for 3 h, and then the proteasome activity in the lysates of the fresh Jurkat cells was assayed. […] The loss of LAC activity in the 16 h and 24 h conditioned medium is unlikely due to trapping of LAC by proteasomes released by dead Jurkat cells, because LAC could rapidly enter the live cells and the equilibrium of the LAC concentration between both sides of the cytoplasmic membrane should be established very fast. Thus, the proteasomes whether released or not should not make a difference in terms of trapping LAC. Besides, we have also noticed that LAC kept in cell free culture medium at 4° C. would lose its activity within 24 h (data not shown).

mouse lymph node cells = assay: Aggregate formation of Con A-stimulated lymph node cells; format: cell-based; conditions: 2 μg/ml Con A plus 10 μM lactacystin; 24 h
Source text: Cell-cell interaction is essential in antigen presentation and in T cell's help to T and B cells. The adhesion molecules are necessary to establish the cell-cell interaction. Blocking the adhesion molecules ICAM-1 and LFA-1 is known to inhibit immune responses and to suppress graft rejection. […] Therefore, inhibition of the proteasome activity will be a useful way to control undesirable immune responses during graft rejection, autoimmune diseases, and inflammation.

CDK4 = assay: Immunoprecipitation kinase assay, CDK4; format: cell-based, human; conditions: PHA-activated T cells; LAC 10 μM added once at 0 h; examined at 16 h and 40 h
Method: Tonsillar T cells were activated with PHA (2 μg/ml) for a period as indicated in each graph. LAC (10 μM) was added once at 0 h. The cells were harvested at 16 h, 24 h, or 40 h as indicated. An equal amount of lysate protein ([…]) was precipitated with rabbit anti-CDK4, anti-CDK2 or anti-Cyclin E antisera (2.5 μg Ab/sample). The immune complexes were assayed for their kinase activities using histone H1 as a substrate. (A) CDK4 kinase activity. (B) CDK2 kinase activity. (C) Cyclin E-associated CDK activity. The membrane in (C) was subsequently hybridized with anti-Cyclin E (1 μg/ml) followed by ^125I-protein A for the evaluation of the protein level of Cyclin E.
This was in agreement with the critical role of CDK4 in the early […].
Lymphocytes were lysed by a lysis buffer as used in the immunoblotting (Chen et al., 1996, supra), and cleared lysates were quantitated for their protein content. For immunoprecipitation, 50 μl of rabbit antisera against CDK2, CDK4 or Cyclin E were added to the lysates equivalent to 20 or 40 μg protein depending on the experiment. After 2 h incubation at 4° C., the immune complexes were recovered by protein A-conjugated Sepharose (Pharmacia Biotech, Montreal, Quebec, Canada). […] The proteins were then transferred to PVDF membranes and the signals were detected by autoradiography.

Jurkat cells [2] = assay: DNA fragmentation (DNA laddering) in Jurkat cells; format: cell-based; conditions: LAC 6 μM
Method: (§1) Tonsillar T cells (A, B, and D) and Jurkat cells (C and E) were treated with LAC (10 μM for T cells and 6 μM for Jurkat cells). LAC was added at the beginning of the culture or 40 h after T cell activation as indicated. The cells were harvested at the time points as shown. They were evaluated for their viability with trypan blue exclusion (A, B, and C), and for their mode of cell death according to DNA fragmentation (D and E).
Jurkat cells were treated with LAC (6 μM) in the absence or presence of different concentrations of zVAD.fms (0.4 μM to 33.3 μM) for 6 h. The cells were harvested and their DNA was analyzed by a DNA fragmentation assay according to DNA laddering.
We next employed DNA laddering to study the mode of cell death caused by LAC, and the result of this experiment also reflected the degree of cell death after different treatments. […] After 24 h of LAC treatment, the ladders became less discrete, and this probably reflected further DNA breakdown.
The assay was performed according to a protocol described by Liu et al (Liu et al., 1997, Cell. 89:175) with some modifications. Briefly, 2-6 million cells were re-suspended in 50 μl PBS followed by 300 μl lysis buffer (100 mM Tris-HCl, pH 8.0, 5 mM EDTA, 0.2 M NaCl. 0.2% w/v SDS, and 0.2 mg/ml proteinase K). After overnight incubation at 37° C., 350 μl of 3M NaCl was added to the mixture and cell debris was removed by centrifugation at 13000 g for 20 min at room temperature. DNA in the supernatant was precipitated with an equal volume of 100% ethanol. The pellet was washed with cold 70% ethanol and then dissolved in 20 μl of TE containing 0.2 mg/ml RNase A. After incubation at 37° C. for 2 h, the DNA was resolved on 2% agarose gel and visualized with ethidium bromide staining.

Jurkat cells [3] = assay: Jurkat cell viability by trypan blue exclusion; format: cell-based; conditions: 6 μM LAC
Method: as §1, with “E). The effect of LAC on Jurkat cells was quite similar to that on the activated T cells.” for “E).”

[4] = aqueous solutions of high pH; cited from earlier work

## CC(=O)N[C@@H](CSC(=O)[C@]1([C@@H](O)C(C)C)NC(=O)[C@H](C)[C@@H]1O)C(=O)O [LAC, lactacystin]
[1]; media conditioned 16 h and 24 h
  inhibitory activity of LAC-conditioned media on proteasome activity of fresh Jurkat cells: lost their inhibitory effect
[1]; media conditioned up to 6 h
  inhibitory activity of LAC-conditioned media on proteasome activity of fresh Jurkat cells: could still actively inhibit the enzymatic activity
[1]; cell free culture medium at 4° C., data not shown
  time in which LAC loses its activity: ≤ 24 h
Mouse lymph node cells
  aggregate formation: effectively block the aggregate formation
CDK4
  CDK4 kinase activity: did not affect the CDK4 activity
Jurkat cells [2]
  onset of DNA fragmentation: detected as early as 6 h
Jurkat cells [2]; after 16 h
  DNA fragmentation: more prominent
Jurkat cells [3]; 24 h culture
  trypan blue positive cells: about 60%
Jurkat cells [3]; less than 8 h exposure
  cell death (trypan blue): did not induce apparent Jurkat cell death
[4]
  stability in aqueous solutions: unstable
